Laboratory results taken from US20070099841A1, “Prodrugs of T3 and T4 with enhanced bioavailability” (New River Pharmaceuticals Inc., priority 2005, published 2007).

Key:
[1] = design: species or system Sprague-Dawley rats; conditions: rat, in vivo; for mean level of Total T3 at 1 hour post dose: po
Protocol: Compounds were tested in Sprague-dawley rats (˜250 g). Defined doses were delivered as oral solutions in 0.5% sodium bicarbonate buffer with T3 sodium salt containing 12 mcgT3/kg or triiodothyronine composition containing the equivalent amount of T3. Rats were dosed immediately following 0 hour serum collection. Serum was collected from rats at 2, 4, 6, 9, 12 and 24 hours after capsule delivery. Total serum T3 concentrations were determined by ELISA using a commercially available kit (Total Triiodothyronine (total T3) ELISA KIT, product #1700, ALPHA DIAGNOSTIC, San Antonio, Tex.). Total serum T4 concentrations were determined by ELISA using a commercially available kit (Total Thyronine (Total T4) ELISA KIT, product #1100, ALPHA DIAGNOSTIC, San Antonio, Tex.).
The general procedures described above were employed for the experimental data described below. These procedures are subject to minor variations in timing and weight of rats, etc.
(§1) T3 sodium, G-T3, V-T3, I-T3, Y-T3, A2-T3, P2-T3, or F2-T3 were administered at equimolar doses to Sprague-Dawley rats (12 μg/kg T3; HED˜120 μg T3 sodium; n=6, per group) that were hypothyroid due to removal of the thyroid gland approximately one week prior to evaluation. Serum was collected at 0 (pre-dose), 1, 2, 4, 6, 8 and 12 hours post-dose and analyzed for total T3 and TSH by chemiluminescent immunoassay (Immulite CIA). […] At 1 hour post dose the mean level of Total T3 was 327.3, 429.5, 432.7, 403.3, 431, and 433.1 ng/ml for G-T3, V-T3, I-T3, Y-T3, P2-T3, and F2-T3 dosed animals respectively as compared to 577 ng/ml for T3 sodium dosed animals. Applicants note that some variation in these values may be present as with A2-T3 (FIGS. 15 and 16).

TSH = experiment: Serum TSH after oral administration to hypothyroid rats (chemiluminescent immunoassay); type: in vivo, Sprague-Dawley rats; conditions: for TSH, mean: mean n=6, oral 12 μg/kg T3; for TSH levels in response to administration: oral 12 μg/kg T3
Protocol: as §1

| Structure (SMILES) | Total T3 AUC, % (of T3) [1] [%] | Total T3Δ dAUC, % (of T3) [1] [%] | Variability of T3 absorption compared with T3 sodium [1] | mean level of Total T3 at 1 hour post dose [1] [ng/mL] | TSH, mean (TSH; 0 h (pre-dose)) [μIU] | TSH, mean (TSH; 1 h) [μIU] | TSH, mean (TSH; 2 h) [μIU] | TSH, mean (TSH; 4 h) [μIU] | TSH, mean (TSH; 6 h) [μIU] | TSH, mean (TSH; 8 h) [μIU] | TSH, mean (TSH; 12 h) [μIU] | TSH levels in response to administration (TSH) |
| --- | --- | --- | --- | --- | --- | --- | --- | --- | --- | --- | --- | --- |
| CC(C)[C@H](N)C(=O)N[C@@H](Cc1cc(I)c(Oc2ccc(O)c(I)c2)c(I)c1)C(=O)O [V-T3] | 94.9 | 98.6 | decreased variability of T3 absorption | 429.5 | 2.309 | 2.212 | 1.123 | 0.282 | 0.174 | 0.175 | 0.54 | decreased rapidly |
| N[C@@H](Cc1ccc(O)cc1)C(=O)N[C@@H](Cc1cc(I)c(Oc2ccc(O)c(I)c2)c(I)c1)C(=O)O [Y-T3] | 95.5 | 100.4 | decreased variability of T3 absorption | 403.3 | 2.595 | 2.648 | 1.601 | 0.471 | 0.27 | 0.221 | 0.651 | decreased rapidly |
